This experiment addresses T1, SOS1 protein (Homo sapiens, UniProt Q07889).
T1 sequence (Q07889 1-1333): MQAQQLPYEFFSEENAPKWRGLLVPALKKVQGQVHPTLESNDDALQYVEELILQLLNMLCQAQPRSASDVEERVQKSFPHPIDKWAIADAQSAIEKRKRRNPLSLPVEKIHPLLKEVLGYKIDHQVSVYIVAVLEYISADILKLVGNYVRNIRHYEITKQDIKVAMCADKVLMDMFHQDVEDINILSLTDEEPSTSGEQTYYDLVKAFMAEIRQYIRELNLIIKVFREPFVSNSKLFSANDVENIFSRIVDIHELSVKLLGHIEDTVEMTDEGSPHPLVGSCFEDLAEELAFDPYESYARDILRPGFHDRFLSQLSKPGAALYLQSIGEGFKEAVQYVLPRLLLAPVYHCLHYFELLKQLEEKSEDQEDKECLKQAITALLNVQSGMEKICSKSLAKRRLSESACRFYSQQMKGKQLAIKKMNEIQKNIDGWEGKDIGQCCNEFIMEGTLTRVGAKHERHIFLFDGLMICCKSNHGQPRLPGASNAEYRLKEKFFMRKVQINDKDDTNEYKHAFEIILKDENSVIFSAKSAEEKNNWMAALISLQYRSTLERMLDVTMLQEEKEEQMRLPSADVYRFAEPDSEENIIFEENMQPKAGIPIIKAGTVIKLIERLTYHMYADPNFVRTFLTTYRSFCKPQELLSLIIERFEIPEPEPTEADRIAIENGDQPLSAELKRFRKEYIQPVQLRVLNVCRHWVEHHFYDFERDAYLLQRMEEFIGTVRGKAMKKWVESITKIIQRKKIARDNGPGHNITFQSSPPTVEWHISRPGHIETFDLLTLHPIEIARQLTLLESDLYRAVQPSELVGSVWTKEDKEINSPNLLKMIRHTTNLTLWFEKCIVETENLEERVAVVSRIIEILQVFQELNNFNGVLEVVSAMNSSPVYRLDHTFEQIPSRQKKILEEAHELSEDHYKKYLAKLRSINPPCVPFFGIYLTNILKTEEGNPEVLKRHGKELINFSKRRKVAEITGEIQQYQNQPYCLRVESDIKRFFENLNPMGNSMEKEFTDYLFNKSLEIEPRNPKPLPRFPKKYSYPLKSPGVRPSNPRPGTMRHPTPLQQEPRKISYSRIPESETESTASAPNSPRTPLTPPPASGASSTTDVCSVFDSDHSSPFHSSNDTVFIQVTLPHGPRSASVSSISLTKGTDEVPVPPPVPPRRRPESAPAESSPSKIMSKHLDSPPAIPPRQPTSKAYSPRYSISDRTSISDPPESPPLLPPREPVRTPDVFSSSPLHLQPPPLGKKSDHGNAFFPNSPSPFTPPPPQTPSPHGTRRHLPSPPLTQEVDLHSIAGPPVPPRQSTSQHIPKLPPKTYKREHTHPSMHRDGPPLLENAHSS
Kind of experiment: SOS1 degradation assay (Western blot) in A-427 cells. More on the design: host or cells: NCI-H358, A-427, SW-620, DLD-1 (human cancer cell lines). Type of experiment: cell-based. As to conditions: A-427 (KRAS G12D), 24 h; for DC50: read-out: A427 (G12D) DC50; for Dmax: read-out: A427 (G12D) Dmax. Here is the method:
Test Example 2: SOS1 Degradation Assay
The degradation of SOS1 by the compounds was investigated on KRAS G12C mutant human non-small cell lung cancer cells NCI-H358 (ATCC or Stem Cell Bank, Chinese Academy of Sciences), KRAS G12D mutant human lung cancer cells A-427 (ATCC), KRAS G12V mutant human colorectal adenocarcinoma cells SW-620 (ATCC), and KRAS G13D mutant human colorectal adenocarcinoma epithelial cells DLD-1 (ATCC). The specific procedures were as follows:
0.95 mL of cells were seeded into each well of a 24-well cell culture plate to achieve a cell density of 5×10^5 cells/well; the cell plate was incubated in an incubator at 37° C. with 5% CO2 overnight. Then 50 μL of the compound solution after dilution was added to each of the wells with the corresponding cells, so that the final concentration of the compound was in a range of 0.03-3000 nM. The final concentration of DMSO was 0.25%.
After dosing, the cell plate was incubated in an incubator at 37° C. with 5% CO2 for 24 h. The cell culture medium in the 24-well plate was removed, and the plate was washed twice with 1×PBS. 180 μL of RIPA (strong) lysis buffer (Beyotime, P0013B) supplemented with 1 mM phenylmethylsulfonyl fluoride, a protease inhibitor mixture (Beyotime, P1008), and a protease phosphatase inhibitor mixture (Beyotime, P1045) was added to lyse adherent NCI-H358 cells at the bottom of the cell culture plate. After the plate was left to stand on ice for 30 min, the protein lysate in each well was transferred to a 1.5 mL centrifuge tube and centrifuged at 15000 g for 20 min at 4° C. […] The concentration of total protein in the cell lysate supernatant was determined using the BCA Protein Quantification Kit (Tiangen, PA115-02). […]
The concentration of total protein in the cell lysate was determined by BCA. […] After the blocking, the PVDF membrane was incubated with an SOS1 primary antibody (Abcam, ab140621) at 4° C. overnight, washed with a TBST buffer (2.4 g of Tris, 8.8 g of NaCl, 1.5 mL of Tween 20, with pH adjusted to 7.4, with the volume brought to 1 L) for 30 min (10 min/time), incubated with a secondary antibody (Abcam, ab205718) at room temperature for 2 h, washed with a TBST buffer for 30 min (10 min/time), and finally incubated with Clarity Western ECL Substrate (BIO-RAD, 170-5061) for 5 min for luminescence and color development, and a chemiluminescence imaging system (Clinx, ChemiScope 6200 Touch) was used for color development and protein mapping. […] The gray correction value for each sample was calculated by the formula: gray correction value=(gray value of target protein/gray value of corresponding internal reference)×103. Then the degradation rate was calculated by comparing the gray correction value with the gray correction value of the control group. […]
(A western blot detects proteins with antibodies after separation by electrophoresis.)

In the case of `COc1cc2nc(C)nc(N[C@H](C)c3cc(-c4c(Cl)cccc4CN(C)C)cs3)c2cc1[C@H]1CC[C@H](C(=O)N2CCN(CC3CCC4(CC3)CCN(C(=O)c3ccc(Cl)c(N5CCC(=O)NC5=O)c3)CC4)CC2)CC1` [Example 1, 1-(2-chloro-5-(9-((4-((1R,4R)-4-(4-(((R)-1-(4-(2-chloro-6-((dimethylamino)methyl)phenyl)thien-2-yl)ethyl)amino)-7-methoxy-2-methylquinazolin-6-yl)cyclohexane-1-carbonyl)piperazin-1-yl)methyl)-3-azaspiro[5.5]undecane-3-carbonyl)phenyl)dihydropyrimidine-2,4(1H,3H)-dione], the half-maximal degradation concentration (DC50) (commonly the concentration giving 50% degradation) was at most 50 nM and the Dmax (commonly the largest share of the target that was removed) is 80 to 100%.
The matching figures for `COc1cc2nc(C)nc(N[C@H](C)c3cc(-c4c(Cl)cccc4CN(C)C)cs3)c2cc1[C@H]1CC[C@H](C(=O)N2CCC(CCOCC3CCN(C(=O)c4ccc(Cl)c(N5CCC(=O)NC5=O)c4)CC3)CC2)CC1` [Example 5, 1-(2-chloro-5-(4-((2-(1-((1R,4R)-4-(4-(((R)-1-(4-(2-chloro-6-((dimethylamino)methyl)phenyl)thien-2-yl)ethyl)amino)-7-methoxy-2-methylquinazolin-6-yl)cyclohexane-1-carbonyl)piperidin-4-yl)ethoxy)methyl)piperidine-1-carbonyl)phenyl)dihydropyrimidine-2,4(1H,3H)-dione]: at most 50 nM and 50 to 80%.

For the origin of these results see patent US20240261418A1, “SOS1 DEGRADING AGENT AND PREPARATION METHOD THEREFOR AND APPLICATION THEREOF” (SHANGHAI LEADINGTAC PHARMACEUTICAL CO. LTD., priority 2021, published 2024).
